From patent US7074789B2, “Kinase inhibitors” (Amgen Inc., priority 1999, dated 2006)

Key:
Format in all cases: biochemical
Lck = target: T1, Lck (Homo sapiens, UniProt P06239); assay: Kinase inhibition assay (33P transfer), Lck; details: Table 3, class symbols; read-out: Lck-1
T1 construct: Kinases are expressed as either kinase domains or full length constructs; made in house
How it was run: (§1)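 Kinase domain or full-length constructs, GST- or polyHis-tagged, expressed in E. coli or baculovirus-High Five cells, sometimes with regulatory polypeptides. Activity measured as 33PO4 transfer from ATP to plate-bound poly(Glu,Tyr) 4:1 or poly(Arg,Ser) 3:1; after incubation, plates washed with 0.5% phosphoric acid and counted by liquid scintillation.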

Zap-70 = target: T2, Zap-70 (Homo sapiens, UniProt P43403); assay: Kinase inhibition assay (33P transfer), Zap-70; details: Table 3, class symbols; read-out: Zap-1
T2 construct: Kinases are expressed as either kinase domains or full length constructs; made in house
T2 sequence (P43403 1-619): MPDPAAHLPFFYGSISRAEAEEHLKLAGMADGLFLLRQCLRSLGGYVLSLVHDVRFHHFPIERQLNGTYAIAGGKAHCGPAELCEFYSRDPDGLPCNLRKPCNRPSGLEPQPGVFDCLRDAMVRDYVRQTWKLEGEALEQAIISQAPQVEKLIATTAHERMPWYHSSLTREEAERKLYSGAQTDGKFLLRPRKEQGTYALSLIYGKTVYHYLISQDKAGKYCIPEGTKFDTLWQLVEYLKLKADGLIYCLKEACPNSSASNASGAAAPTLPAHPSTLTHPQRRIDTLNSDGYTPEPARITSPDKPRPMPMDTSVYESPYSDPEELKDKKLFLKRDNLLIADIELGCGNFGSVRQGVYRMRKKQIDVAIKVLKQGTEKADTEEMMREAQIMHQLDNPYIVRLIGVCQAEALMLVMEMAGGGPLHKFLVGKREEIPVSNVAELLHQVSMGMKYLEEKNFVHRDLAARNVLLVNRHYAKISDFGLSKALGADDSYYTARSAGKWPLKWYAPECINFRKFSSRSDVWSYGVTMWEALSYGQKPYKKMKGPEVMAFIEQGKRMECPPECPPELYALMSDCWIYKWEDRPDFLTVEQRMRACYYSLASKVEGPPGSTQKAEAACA
How it was run: as §1

Itk = target: T3, Itk (Homo sapiens, UniProt Q08881); assay: Kinase inhibition assay (33P transfer), Itk; details: Table 3, class symbols; read-out: Itk-1
T3 construct: Kinases are expressed as either kinase domains or full length constructs; made in house
T3 sequence (Q08881 1-620): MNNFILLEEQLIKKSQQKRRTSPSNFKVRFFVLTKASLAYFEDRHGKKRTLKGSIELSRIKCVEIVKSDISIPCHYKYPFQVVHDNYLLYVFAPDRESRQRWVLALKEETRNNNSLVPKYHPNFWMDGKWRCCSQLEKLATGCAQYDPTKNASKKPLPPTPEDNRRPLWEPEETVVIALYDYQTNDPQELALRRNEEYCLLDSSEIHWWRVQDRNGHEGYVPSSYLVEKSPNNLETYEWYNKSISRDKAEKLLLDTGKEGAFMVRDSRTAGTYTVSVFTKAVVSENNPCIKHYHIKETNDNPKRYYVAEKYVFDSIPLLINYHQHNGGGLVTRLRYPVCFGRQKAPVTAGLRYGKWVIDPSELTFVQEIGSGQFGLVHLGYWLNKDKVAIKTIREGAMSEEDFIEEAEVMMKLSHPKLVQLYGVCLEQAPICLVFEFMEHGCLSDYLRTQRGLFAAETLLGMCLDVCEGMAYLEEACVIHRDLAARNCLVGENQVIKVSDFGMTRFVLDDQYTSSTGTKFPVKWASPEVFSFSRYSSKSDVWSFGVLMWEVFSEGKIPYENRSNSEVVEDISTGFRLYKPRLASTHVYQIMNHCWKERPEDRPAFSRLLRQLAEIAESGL
How it was run: (§2)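 Steps: coat wells with poly(Glu,Tyr) 4:1 or poly(Arg,Ser) 3:1; add purified kinase, [33P]ATP and inhibitor; incubate; wash with 0.5% phosphoric acid; add liquid scintillant; count. IC50 corresponds to half-maximal reduction of bound 33P.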

EGFR = target: T4, EGFR (Homo sapiens, UniProt P00533); assay: Kinase inhibition assay (33P transfer), EGFR; details: Table 2, class symbols A-E; read-out: EGFR-1
T4 construct: Kinases are expressed as either kinase domains or full length constructs; made in house
T4 sequence (P00533 25-1210, species assumed): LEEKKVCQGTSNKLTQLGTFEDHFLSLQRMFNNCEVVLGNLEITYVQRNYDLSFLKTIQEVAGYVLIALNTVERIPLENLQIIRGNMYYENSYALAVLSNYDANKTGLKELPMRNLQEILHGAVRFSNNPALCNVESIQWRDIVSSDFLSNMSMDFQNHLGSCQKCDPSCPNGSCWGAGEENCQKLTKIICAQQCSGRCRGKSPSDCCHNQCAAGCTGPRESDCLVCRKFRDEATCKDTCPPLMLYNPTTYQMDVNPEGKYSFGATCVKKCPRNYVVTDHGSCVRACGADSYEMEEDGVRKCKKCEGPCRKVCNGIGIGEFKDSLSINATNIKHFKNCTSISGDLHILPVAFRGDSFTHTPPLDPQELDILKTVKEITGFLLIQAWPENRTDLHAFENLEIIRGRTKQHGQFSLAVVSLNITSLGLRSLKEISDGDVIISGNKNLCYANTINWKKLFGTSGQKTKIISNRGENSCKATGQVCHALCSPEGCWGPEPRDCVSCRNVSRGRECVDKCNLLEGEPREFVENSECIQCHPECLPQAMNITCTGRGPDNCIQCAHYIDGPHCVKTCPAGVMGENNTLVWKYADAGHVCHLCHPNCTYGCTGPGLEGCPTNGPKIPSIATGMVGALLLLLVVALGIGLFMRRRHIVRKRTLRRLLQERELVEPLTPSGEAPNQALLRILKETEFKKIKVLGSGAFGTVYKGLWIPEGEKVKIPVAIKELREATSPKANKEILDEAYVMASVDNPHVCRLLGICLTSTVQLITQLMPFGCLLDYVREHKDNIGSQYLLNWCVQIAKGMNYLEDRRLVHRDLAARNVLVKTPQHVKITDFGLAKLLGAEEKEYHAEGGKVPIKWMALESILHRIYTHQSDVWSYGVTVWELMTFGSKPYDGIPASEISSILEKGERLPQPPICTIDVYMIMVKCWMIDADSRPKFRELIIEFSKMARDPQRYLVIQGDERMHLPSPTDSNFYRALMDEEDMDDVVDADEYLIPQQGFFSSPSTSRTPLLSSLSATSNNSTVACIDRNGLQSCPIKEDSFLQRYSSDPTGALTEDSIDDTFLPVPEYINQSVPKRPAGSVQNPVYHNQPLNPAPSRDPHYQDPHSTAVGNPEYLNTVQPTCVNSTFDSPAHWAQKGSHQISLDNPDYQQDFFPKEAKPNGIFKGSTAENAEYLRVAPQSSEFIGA
How it was run: as §2

ErbB2 = target: T5, ErbB2 (Homo sapiens, UniProt P04626); assay: Kinase inhibition assay (33P transfer), ErbB2; details: read-out: ErbB2-2
T5 construct: Kinases are expressed as either kinase domains or full length constructs; made in house
How it was run: as §2

Kdr = target: T6, Kdr (Homo sapiens, UniProt P35968); assay: Kinase inhibition assay (33P transfer), Kdr; details: Table 3, class symbols; read-out: KDR-1
T6 construct: Kinases are expressed as either kinase domains or full length constructs; made in house
T6 sequence (P35968 20-1356, species assumed): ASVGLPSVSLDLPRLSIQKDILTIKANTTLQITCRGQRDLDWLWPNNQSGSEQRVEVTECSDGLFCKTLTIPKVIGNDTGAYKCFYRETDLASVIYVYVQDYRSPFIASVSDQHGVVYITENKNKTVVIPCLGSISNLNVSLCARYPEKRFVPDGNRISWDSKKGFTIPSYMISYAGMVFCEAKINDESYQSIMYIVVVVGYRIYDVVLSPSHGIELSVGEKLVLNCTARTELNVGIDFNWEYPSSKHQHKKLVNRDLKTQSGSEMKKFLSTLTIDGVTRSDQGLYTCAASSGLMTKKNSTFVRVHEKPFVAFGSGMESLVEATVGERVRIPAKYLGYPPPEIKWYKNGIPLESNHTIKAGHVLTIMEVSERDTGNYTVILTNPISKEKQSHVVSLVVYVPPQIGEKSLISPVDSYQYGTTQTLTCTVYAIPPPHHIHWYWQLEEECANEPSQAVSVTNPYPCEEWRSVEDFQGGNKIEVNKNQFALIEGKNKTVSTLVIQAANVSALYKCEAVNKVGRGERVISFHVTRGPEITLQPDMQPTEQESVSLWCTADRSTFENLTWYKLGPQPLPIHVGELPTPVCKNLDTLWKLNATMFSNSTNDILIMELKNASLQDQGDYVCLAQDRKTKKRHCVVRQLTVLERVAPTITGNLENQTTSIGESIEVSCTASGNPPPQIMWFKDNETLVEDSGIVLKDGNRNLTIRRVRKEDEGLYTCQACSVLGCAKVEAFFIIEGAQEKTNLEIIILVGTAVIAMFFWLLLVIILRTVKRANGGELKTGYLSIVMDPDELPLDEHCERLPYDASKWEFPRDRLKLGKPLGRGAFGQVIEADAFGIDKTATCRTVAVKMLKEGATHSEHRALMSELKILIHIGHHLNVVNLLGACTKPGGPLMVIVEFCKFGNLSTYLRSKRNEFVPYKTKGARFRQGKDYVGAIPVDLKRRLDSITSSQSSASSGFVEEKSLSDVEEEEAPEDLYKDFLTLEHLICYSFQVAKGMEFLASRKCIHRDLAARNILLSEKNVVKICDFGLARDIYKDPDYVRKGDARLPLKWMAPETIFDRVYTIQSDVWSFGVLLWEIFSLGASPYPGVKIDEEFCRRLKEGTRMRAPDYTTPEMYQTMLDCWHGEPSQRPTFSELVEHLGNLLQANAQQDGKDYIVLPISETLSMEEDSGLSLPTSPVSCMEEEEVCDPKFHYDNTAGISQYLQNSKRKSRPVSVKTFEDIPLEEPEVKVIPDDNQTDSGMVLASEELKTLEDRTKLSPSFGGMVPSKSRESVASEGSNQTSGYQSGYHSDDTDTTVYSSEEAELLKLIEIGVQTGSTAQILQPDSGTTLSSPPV
How it was run: as §1

c-Met = target: T7, c-Met (Homo sapiens, UniProt P08581); assay: Kinase inhibition assay (33P transfer), c-Met; details: Table 2, class symbols A-E; read-out: Met-1
T7 construct: Kinases are expressed as either kinase domains or full length constructs; made in house
How it was run: as §2

AKT = target: T8, AKT (Homo sapiens, UniProt Q9Y243); assay: Kinase inhibition assay (33P transfer), AKT; details: Table 2, class symbols A-E; read-out: AKT3-1
T8 construct: Kinases are expressed as either kinase domains or full length constructs; made in house
T8 sequence (Q9Y243 whole entry, the tested form may be a part): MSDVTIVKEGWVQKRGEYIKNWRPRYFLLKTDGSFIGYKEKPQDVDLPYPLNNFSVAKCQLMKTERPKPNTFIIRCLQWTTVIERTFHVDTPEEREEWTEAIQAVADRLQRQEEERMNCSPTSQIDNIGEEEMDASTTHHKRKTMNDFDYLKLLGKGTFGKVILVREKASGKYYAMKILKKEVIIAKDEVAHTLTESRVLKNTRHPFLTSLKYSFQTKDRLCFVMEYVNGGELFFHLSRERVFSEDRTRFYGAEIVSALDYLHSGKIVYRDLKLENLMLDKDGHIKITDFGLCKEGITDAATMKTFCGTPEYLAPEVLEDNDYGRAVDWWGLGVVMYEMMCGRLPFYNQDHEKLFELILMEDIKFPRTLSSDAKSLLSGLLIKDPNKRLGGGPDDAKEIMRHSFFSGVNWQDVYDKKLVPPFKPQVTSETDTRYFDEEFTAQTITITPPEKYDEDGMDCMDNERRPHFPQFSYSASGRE
How it was run: as §1

IGFR-1 = target: T9, IGFR-1 (Homo sapiens, UniProt P08069); assay: Kinase inhibition assay (33P transfer), IGFR-1; details: Table 2, class symbols A-E
T9 construct: Kinases are expressed as either kinase domains or full length constructs; made in house

PDGFRB = target: T10, PDGFRB (Homo sapiens, UniProt P09619); assay: Kinase inhibition assay (33P transfer), PDGFRB; details: read-out: PDGFRB-1
T10 construct: Kinases are expressed as either kinase domains or full length constructs; made in house
T10 sequence (P09619 33-1106, species assumed): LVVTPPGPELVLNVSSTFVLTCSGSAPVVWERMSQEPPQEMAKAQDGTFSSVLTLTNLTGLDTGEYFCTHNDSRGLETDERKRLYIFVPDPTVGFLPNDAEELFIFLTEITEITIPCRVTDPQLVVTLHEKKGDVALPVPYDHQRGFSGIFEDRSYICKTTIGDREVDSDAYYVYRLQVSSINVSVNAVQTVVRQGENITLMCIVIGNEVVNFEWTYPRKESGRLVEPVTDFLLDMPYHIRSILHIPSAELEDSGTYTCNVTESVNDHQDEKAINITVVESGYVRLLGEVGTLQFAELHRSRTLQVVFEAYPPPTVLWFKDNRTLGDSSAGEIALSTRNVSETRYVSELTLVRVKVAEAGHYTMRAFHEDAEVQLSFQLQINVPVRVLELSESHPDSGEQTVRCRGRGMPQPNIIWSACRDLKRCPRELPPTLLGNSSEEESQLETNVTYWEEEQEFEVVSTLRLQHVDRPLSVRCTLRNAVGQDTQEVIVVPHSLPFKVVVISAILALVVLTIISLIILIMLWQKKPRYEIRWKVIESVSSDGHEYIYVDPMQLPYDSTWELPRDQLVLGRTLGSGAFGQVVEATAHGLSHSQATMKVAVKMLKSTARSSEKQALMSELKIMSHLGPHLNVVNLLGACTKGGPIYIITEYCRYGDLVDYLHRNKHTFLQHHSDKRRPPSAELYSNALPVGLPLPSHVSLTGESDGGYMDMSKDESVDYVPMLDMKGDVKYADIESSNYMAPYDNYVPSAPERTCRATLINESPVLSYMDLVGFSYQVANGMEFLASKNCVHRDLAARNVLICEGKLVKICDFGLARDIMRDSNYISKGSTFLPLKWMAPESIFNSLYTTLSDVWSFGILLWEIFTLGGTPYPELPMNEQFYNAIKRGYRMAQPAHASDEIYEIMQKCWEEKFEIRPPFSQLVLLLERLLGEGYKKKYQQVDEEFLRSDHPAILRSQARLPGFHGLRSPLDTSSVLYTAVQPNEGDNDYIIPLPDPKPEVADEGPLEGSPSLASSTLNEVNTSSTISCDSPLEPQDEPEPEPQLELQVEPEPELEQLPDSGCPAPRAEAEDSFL

T1 sequence (P06239 whole entry, species assumed, the tested form may be a part): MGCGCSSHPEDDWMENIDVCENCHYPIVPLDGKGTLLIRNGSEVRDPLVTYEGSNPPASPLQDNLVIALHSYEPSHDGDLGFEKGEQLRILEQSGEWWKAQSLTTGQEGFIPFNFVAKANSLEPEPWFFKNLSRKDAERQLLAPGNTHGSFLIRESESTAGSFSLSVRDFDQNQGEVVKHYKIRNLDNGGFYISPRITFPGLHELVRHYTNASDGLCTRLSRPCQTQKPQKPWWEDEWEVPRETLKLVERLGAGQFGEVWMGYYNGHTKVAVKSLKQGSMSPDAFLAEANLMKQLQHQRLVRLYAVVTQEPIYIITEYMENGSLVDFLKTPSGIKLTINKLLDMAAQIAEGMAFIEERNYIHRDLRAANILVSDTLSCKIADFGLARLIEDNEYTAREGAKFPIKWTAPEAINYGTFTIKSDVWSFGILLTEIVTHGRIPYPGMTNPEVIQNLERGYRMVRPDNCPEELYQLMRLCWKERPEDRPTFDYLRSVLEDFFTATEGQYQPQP

Compound | IC50 (Lck) [µM] | IC50 (Zap-70) [µM] | IC50 (Itk) [µM] | IC50 (EGFR) [µM] | IC50 (ErbB2) [µM] | IC50 (Kdr) [µM] | IC50 (c-Met) [µM] | IC50 (AKT) [µM] | IC50 (IGFR-1) [µM] | IC50 (PDGFRB) [µM]
COC(=O)c1ccc(-c2cc(Nc3ncnc(Nc4cc(Cl)cc(Cl)c4)n3)[nH]n2)cc1 [Compound 811] | > 9.86 | > 9.86 | > 9.86 | > 9.86 | > 9.86 | > 9.86 | > 9.86 | > 9.86 | 5.26 to 7.67 | > 9.86
COc1ccc(Nc2ncnc(Nc3ccc(F)c(F)c3)n2)cc1OC [Compound 794] | 1.11 to 6.68 | 9.74 to 12.5 | 9.74 to 12.5 | 1.11 to 6.68 | 1.11 to 6.68 | 6.68 to 9.74 | 9.74 to 12.5 | > 12.5 | 6.68 to 9.74 | 1.11 to 6.68
COc1cc(Nc2ncnc(-c3cccnc3Nc3ccc(Cl)cc3C)n2)cc(OC)c1OC [Compound 834] | > 9.4 | > 9.4 | > 9.4 | > 9.4 | > 9.4 | 0.835 to 5.01 | > 9.4 | > 9.4 | > 9.4 | < 0.835
CCOC(=O)c1cccc(Nc2ncnc(Nc3cc(-c4ccc(C(=O)OC)cc4)n[nH]3)n2)c1 [Compound 813] | > 9.79 | > 9.79 | 0.871 to 5.22 | > 9.79 | > 9.79 | > 9.79 | > 9.79 | > 9.79 | > 9.79 | 0.871 to 5.22
COc1cc(Nc2ncnc(-c3cccnc3Nc3ccc(Oc4ccccc4)cc3)n2)cc(OC)c1OC [Compound 839] | > 8.61 | > 8.61 | > 8.61 | > 8.61 | 0.765 to 4.59 | > 8.61 | > 8.61 | > 8.61 | > 8.61 | 4.59 to 6.7

Results, then the compound that gave them:

IC50 (Lck) [µM] | IC50 (Zap-70) [µM] | IC50 (Itk) [µM] | IC50 (EGFR) [µM] | IC50 (ErbB2) [µM] | IC50 (Kdr) [µM] | IC50 (c-Met) [µM] | IC50 (AKT) [µM] | IC50 (IGFR-1) [µM] | IC50 (PDGFRB) [µM] | Compound
0.843 to 5.06 | > 9.48 | 5.06 to 7.38 | < 0.843 | 0.843 to 5.06 | < 0.843 | > 9.48 | > 9.48 | > 9.48 | < 0.843 | c1ccc(CNc2nc3ccccc3n2-c2ncnc(Nc3cccc(Cn4ccnn4)c3)n2)cc1 [Compound 965]
> 10.6 | > 10.6 | 0.945 to 5.67 | < 0.945 | 0.945 to 5.67 | 0.945 to 5.67 | 0.945 to 5.67 | > 10.6 | > 10.6 | 0.945 to 5.67 | COc1ccc(Nc2ncnc(Nc3ccc4c(cnn4Cc4ccccc4)c3)n2)cc1 [Compound 905]
> 10.9 | > 10.9 | 5.79 to 8.44 | > 10.9 | > 10.9 | > 10.9 | > 10.9 | > 10.9 | > 10.9 | 8.44 to 10.9 | c1ccc(Cn2ncc3cc(Nc4ncnc(NCCN5CCCC5)n4)ccc32)cc1 [Compound 871]
